From ChEMBL document CHEMBL1139168, “Pyrrolidino-tetrahydroisoquinolines as potent dual H3 antagonist and serotonin transporter inhibitors” (Bioorg Med Chem Lett, 2007) come the findings set out here.

For data set [1], the target named is Sodium-dependent serotonin transporter (Rattus norvegicus, UniProt P31652). Description: Displacement of [3H]citalopram from rat brain SERT.
The target of another data set is Histamine H3 receptor (Homo sapiens, UniProt Q9Y5N1). As to the kind of experiment: Binding affinity at human histamine H3 receptor expressed in SK-N-MC cells.
Data set [2] concerns Mus musculus. Description: Inhibition of SERT in ip dosed 5-hydroxytryptophan potentiated head twitch mouse model assessed as increase in head twitches after 24 hrs. It is filed as functional, organism-based.
In data set [3] the test system is Mus musculus. Description: Inhibition of SERT in 5-hydroxytryptophan potentiated head twitch mouse model assessed as increase in head twitch response at 3 mg/kg, ip relative to control. It is filed as functional. Also on record: scale not given: the % may be the effect or the level left. The following applies: route intraperitoneal.
Data set [4] deals with Mus musculus. Description: Inhibition of SERT in 5-hydroxytryptophan potentiated head twitch mouse model assessed as increase in head twitch response at 10 mg/kg, ip relative to control. Conditions: route intraperitoneal. Also on record: scale not given: the % may be the effect or the level left. It is filed as functional.
The nature of data set [5]: Half life in rat at 1 mg/kg, iv or 10 mg/kg, po. Format: ADME, organism-based. Conditions: in vivo.
A short description of data set [6]: Bioavailability in rat 10 mg/kg, po. Format: ADME, organism-based. Conditions: in vivo.
Data set [7] concerns Rattus norvegicus. Description: Increase in extracellular serotonin level in rat brain frontal cortex at 1 mg/kg, ip after 8 hrs relative to basal level. It is filed as functional. Conditions: route intraperitoneal.
Data set [8] concerns Rattus norvegicus. Description: Increase in extracellular dopamine level in rat brain frontal cortex at 1 mg/kg, ip after 8 hrs relative to basal level. The following applies: route intraperitoneal. It is filed as functional.
The test system of data set [9] is Rattus norvegicus. Description: Increase in extracellular serotonin level in rat brain frontal cortex at 1 mg/kg, ip after 24 hrs relative to basal level. It is filed as functional. Conditions: route intraperitoneal.
Data set [10] has as its system Rattus norvegicus. As to the kind of experiment: Increase in extracellular dopamine level in rat brain frontal cortex at 1 mg/kg, ip after 24 hrs relative to basal level. It is filed as functional. The following applies: route intraperitoneal.
The nature of data set [11]: Cmax in mouse brain at 30 mg/kg, ip.

A word on the Ki: it is the dissociation constant of the complex between target and ligand, obtained from inhibition or displacement. What is called half-life is the time needed for the level to fall by half in the phase considered. By bioavailability is commonly meant dose-corrected exposure relative to a reference, in per cent. For orientation: Cmax means the highest concentration seen after dosing.

Histamine H3 receptor, sequence (Q9Y5N1 whole entry): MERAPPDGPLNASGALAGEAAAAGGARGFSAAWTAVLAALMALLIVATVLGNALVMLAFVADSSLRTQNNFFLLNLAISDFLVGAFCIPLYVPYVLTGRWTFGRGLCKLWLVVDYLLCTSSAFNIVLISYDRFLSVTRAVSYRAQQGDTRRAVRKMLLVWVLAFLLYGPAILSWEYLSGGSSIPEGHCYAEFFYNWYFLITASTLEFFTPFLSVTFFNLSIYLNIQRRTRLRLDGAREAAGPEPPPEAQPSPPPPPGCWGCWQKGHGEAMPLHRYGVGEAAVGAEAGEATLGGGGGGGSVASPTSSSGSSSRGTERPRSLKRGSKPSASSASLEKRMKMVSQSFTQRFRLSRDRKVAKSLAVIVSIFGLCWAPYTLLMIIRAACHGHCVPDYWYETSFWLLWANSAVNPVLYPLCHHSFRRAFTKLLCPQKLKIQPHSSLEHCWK
Sodium-dependent serotonin transporter, sequence (P31652 whole entry): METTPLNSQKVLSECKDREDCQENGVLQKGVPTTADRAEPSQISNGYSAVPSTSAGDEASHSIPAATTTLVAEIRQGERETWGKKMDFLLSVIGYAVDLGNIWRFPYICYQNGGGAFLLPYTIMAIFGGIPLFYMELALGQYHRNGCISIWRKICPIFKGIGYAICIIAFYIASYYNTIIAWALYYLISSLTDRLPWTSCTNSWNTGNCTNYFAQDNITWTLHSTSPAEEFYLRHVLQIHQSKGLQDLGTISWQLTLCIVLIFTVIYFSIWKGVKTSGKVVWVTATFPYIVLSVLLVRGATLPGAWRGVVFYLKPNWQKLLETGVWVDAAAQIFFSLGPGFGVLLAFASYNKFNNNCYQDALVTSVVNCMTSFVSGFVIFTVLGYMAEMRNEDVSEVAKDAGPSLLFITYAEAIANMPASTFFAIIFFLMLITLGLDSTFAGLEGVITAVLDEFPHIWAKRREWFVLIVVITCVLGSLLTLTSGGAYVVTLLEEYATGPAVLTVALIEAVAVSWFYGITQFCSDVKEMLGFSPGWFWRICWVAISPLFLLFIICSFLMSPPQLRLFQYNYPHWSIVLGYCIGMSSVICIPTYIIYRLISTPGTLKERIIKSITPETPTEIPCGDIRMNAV

Regarding `Cc1ccc(C2CN3CCCC3c3cc(OCCCN4CCCCC4)ccc32)cc1` (racemic), the Ki in [1] is 3 nM; at Histamine H3 receptor it was 2 nM.
For the compound `Clc1ccc(C2CN3CCCC3c3cc(OCCCN4CCCCC4)ccc32)cc1` (racemic), the figures for the inhibition constant Ki (in data set [1]; on Histamine H3 receptor) were 6.3 nM and 2.2 nM, respectively.
The matching figures for `C#Cc1cccc(C2CN3CCCC3c3cc(OCCCN4CCCCC4)ccc32)c1` (racemic): 8.7 nM and 2 nM.
With `CSc1ccc(C2CN3CCCC3c3cc(OCCCN4CCCCC4)ccc32)cc1` (racemic), the results for the Ki (in [1]; at Histamine H3 receptor) were 3.3 nM and 2.5 nM, respectively.
As for `COc1cccc(C2CN3CCCC3c3cc(OCCCN4CCCCC4)ccc32)c1` (racemic), the Ki was found to be 4.7 nM in [1] and 1.7 nM at Histamine H3 receptor.
The matching figures for `CN(C)c1ccc(C2CN3CCCC3c3cc(OCCCN4CCCCC4)ccc32)cc1` (racemic): 3.3 nM and 1.6 nM.
Turning to `Clc1ccccc1C1CN2CCCC2c2cc(OCCCN3CCCCC3)ccc21` (racemic), the results for the Ki (in [1]; at Histamine H3 receptor) were 8.7 nM and 2.3 nM, respectively.
The matching figures for `O=[N+]([O-])c1ccc(C2CN3CCCC3c3cc(OCCCN4CCCCC4)ccc32)cc1` (racemic): 5.3 nM and 1.3 nM.
For `COc1ccc(C2CN3CCCC3c3cc(OCCCN4CCCCC4)ccc32)cc1` (racemic), the Activity result was “Dose-dependent effect” in the data set with Mus musculus [2]; 384% with Mus musculus [3]; 661% in the data set with Mus musculus [4]; 500% in the data set on Rattus norvegicus [7]; 300% with Rattus norvegicus [8]; 500% with Rattus norvegicus [9]. This compound registered an Activity in the data set with Rattus norvegicus [10] of 300%. The compound further showed a half-life in data set [5] of 15.7 h. Besides, in [6], the bioavailability turned out to be 16%. The same compound registered a Cmax in data set [11] of 1280 nM.
As to `Oc1ccc(C2CN3CCCC3c3cc(OCCCN4CCCCC4)ccc32)cc1` (racemic), the Ki in data set [1] was determined as 9.3 nM; at Histamine H3 receptor it was 1.7 nM.
The matching figures for `Clc1cccc(C2CN3CCCC3c3cc(OCCCN4CCCCC4)ccc32)c1` (racemic): 4 nM and 1.2 nM.
The corresponding values for `FC(F)(F)Oc1ccc(C2CN3CCCC3c3cc(OCCCN4CCCCC4)ccc32)cc1` (racemic) are 11 nM and 4 nM.
The matching figures for `Oc1ccccc1C1CN2CCCC2c2cc(OCCCN3CCCCC3)ccc21` (racemic): 20.7 nM and 3.7 nM.
In the case of `N#Cc1ccc(C2CN3CCCC3c3cc(OCCCN4CCCCC4)ccc32)cc1` (racemic), the Ki in data set [1] was 24.7 nM; on Histamine H3 receptor, 1.2 nM.
As to `FC(F)(F)c1ccc(C2CN3CCCC3c3cc(OCCCN4CCCCC4)ccc32)cc1` (racemic), the Ki in [1] is 26.7 nM; on Histamine H3 receptor, 4.7 nM.
The matching figures for `Oc1cccc(C2CN3CCCC3c3cc(OCCCN4CCCCC4)ccc32)c1` (racemic): 1.3 nM and 0.7 nM.
The matching figures for `FC(F)(F)c1cccc(C2CN3CCCC3c3cc(OCCCN4CCCCC4)ccc32)c1` (racemic): 21.7 nM and 2 nM.
The corresponding values for `COc1ccccc1C1CN2CCCC2c2cc(OCCCN3CCCCC3)ccc21` (racemic) are 14 nM and 1.3 nM.
For `c1ccc(C2CN3CCCC3c3cc(OCCCN4CCCCC4)ccc32)cc1` (racemic), the Ki was found to be 2 nM in [1] and 0.9 nM at Histamine H3 receptor.
The matching figures for `Fc1ccc(C2CN3CCCC3c3cc(OCCCN4CCCCC4)ccc32)cc1` (racemic): 3.7 nM and 1.7 nM.
The matching figures for `C#Cc1ccc(C2CN3CCCC3c3cc(OCCCN4CCCCC4)ccc32)cc1` (racemic): 7 nM and 4 nM.
